Among the data in ChEMBL document CHEMBL1255174, “Synthesis and biological evaluation of a novel series of bis-salicylaldehydes as mushroom tyrosinase inhibitors” (Bioorg Med Chem Lett, 2010) are IC50 and Ki values, retold here.

Each structure is given as a SMILES string. pIC50, pKi: −log10 of the molar value.

The target of the first experiment is T1, Tyrosinase (Agaricus bisporus, UniProt O42713).
T1 sequence (O42713 whole entry): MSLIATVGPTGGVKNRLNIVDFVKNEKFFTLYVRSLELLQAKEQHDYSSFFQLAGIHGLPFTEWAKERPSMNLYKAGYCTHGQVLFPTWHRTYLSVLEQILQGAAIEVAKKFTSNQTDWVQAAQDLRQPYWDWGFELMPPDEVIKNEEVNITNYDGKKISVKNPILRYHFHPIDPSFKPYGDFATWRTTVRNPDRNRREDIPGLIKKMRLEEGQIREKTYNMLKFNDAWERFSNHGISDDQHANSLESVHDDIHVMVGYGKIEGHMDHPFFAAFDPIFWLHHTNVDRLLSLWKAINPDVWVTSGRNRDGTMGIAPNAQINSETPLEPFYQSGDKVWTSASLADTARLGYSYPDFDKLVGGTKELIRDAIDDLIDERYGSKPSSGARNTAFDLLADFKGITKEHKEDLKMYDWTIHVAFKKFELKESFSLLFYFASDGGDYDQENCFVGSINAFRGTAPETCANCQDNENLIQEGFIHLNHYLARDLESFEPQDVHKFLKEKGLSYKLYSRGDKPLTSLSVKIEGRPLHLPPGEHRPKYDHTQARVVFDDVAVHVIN
Description: Inhibition of mushroom tyrosinase after 10 mins by L-DOPA oxidation assay
`COc1cc(O)c(C=O)cc1Cc1cc(C=O)c(O)cc1OC`: the pIC50 is 3.93. On the same count and under the same terms, then `O=Cc1cc(Cc2cc(C=O)c(O)cc2O)c(O)cc1O`, with 4.12; and `O=Cc1cc(Cc2cc(O)c(O)c(C=O)c2)cc(O)c1O`, with 3.28. `O=Cc1cc(Cc2ccc(O)c(C=O)c2)ccc1O` had a pIC50 of 4.13. `COc1cc(Cc2cc(C=O)c(O)c(OC)c2)cc(C=O)c1O` had a pIC50 of 3.16.

Another experiment deals with T1, Tyrosinase. Description: Inhibition of mushroom tyrosinase by Lineweaver-Burke double reciprocal plot analysis.
Molecule `O=Cc1cc(Cc2ccc(O)c(C=O)c2)ccc1O` had a pKi of 4.32.
